# Tests used:
# Assay type in all cases: in vivo
# [1] = Masking the perception of the acid and the bitterness in orange juice; panelists rate sweet, bitter and sour on a 0-10 scale; settings: for Assessment (0-10) Bitter / Assessment (0-10) Sour / Assessment (0-10) Sweet: scale 0-10
# Excerpt: The panelists (n=6-8) thereby evaluate the 3 attributes “sweet”, “bitter” and “sour” on an unstructured scale of 0 (no taste) to 10 (strong taste). In one sample, the panelists receive the orange juice alone, in a further sample, they received the orange juice which was supplemented with an amount of neoflavonoids as listed in one of the tables. Thereby, the order is arbitrary and not known to the panelists before.
# In the following Tables 1A to 1D, the results of the evaluations are summed up.
# [2] = Masking of typical bitter substances from citrus products; bitterness rated by a group of experts; settings: for Assessment Bitter (0-10) With neoflavonoid: amount of neoflavonoid not given; for Relative masking (bitter): with vs without neoflavonoid
# Excerpt: Masking of Typical Bitter Substances from Citrus Products
# For quantifying the reduction (i.e. the masking or the decrease) of the bitter impression in a sample, the bitterness of a solution containing the bitter substances named in the following Table 2 in column 1 were each compared with a sample, which contained the corresponding bitter substance and additionally the respectively specified amount of a neoflavonoid (column 2) by a group of experts (classification: 1 [not bitter] to 10 [extremely bitter]). For the analysis, i. e. the calculation of the reduction (in %) of the bitter impression, the respective average values of the assessments of the group of experts were used.
# [3] = Masking of the perception of the acid in citrus containing carbonated drinks; panelists rate sour on a 0-10 scale
# Excerpt: Masking of the Perception of the Acid in Citrus Containing Carbonated Drinks
# For quantifying the reduction (i. e. the masking or the decrease) of the perception of the acid in a sample, the panelists (n=6-8) assess the attribute “sour” on a non-structured scale from 0 (no taste)-10 (strong taste). The panelists receive in one sample the citrus/-lime soft drink reduced in sugar alone, in a further sample the soft drink, to which an amount of neoflavonoids specified in Table 3 has been added. Thereby, the order is arbitrary and not known to the panelists before. In the following Table, the results of the evaluations are summed up.
# [4] = Trial 1B, orange juice comprising 7 ppm limonin, 20 ppm neoflavonoid vs juice alone
# [5] = Trial 1B, orange juice comprising 7 ppm limonin, 20 ppm neoflavonoid
# [6] = Trial 1C, orange juice comprising 7 ppm limonin, 25 ppm neoflavonoid vs juice alone
# [7] = Trial 1C, orange juice comprising 7 ppm limonin, 25 ppm neoflavonoid
# [8] = HLB Hamlin orange juice, 15 ppm neoflavonoid vs juice alone
# [9] = Orange juice comprising 7.8 ppm limonin, 10 ppm neoflavonoid vs juice alone
# [10] = Orange juice comprising 7.8 ppm limonin, 10 ppm neoflavonoid, n=6-8
# [11] = Orange juice, oranges infected with HLB from early ripening Hamlin March 2014, 15 ppm neoflavonoid, n=6-8
# [12] = Trial 1D, orange juice comprising 7 ppm limonin, 25 ppm neoflavonoid vs juice alone
# [13] = Trial 1D, orange juice comprising 7 ppm limonin, 25 ppm neoflavonoid
compound,measurement,setting,value
"O=C1CC(c2ccc(O)cc2)c2c(O)cc(O)cc2O1 (stereo not shown) [1:1 mixture from component 11 and 12, 5,7-dihydroxy-4-(4-hydroxyphenyl)-chroman-2-on]",Relative change Bitter,[1]; [4],−45%
same,Relative change Sour,[1]; [4],−33%
same,Relative change Sweet,[1]; [4],+13%
same,Assessment (0-10) Bitter,[1]; [5],2.8
same,Assessment (0-10) Sour,[1]; [5],3.1
same,Assessment (0-10) Sweet,[1]; [5],4.8
same,Assessment Bitter (0-10) With neoflavonoid,[2]; solution of 10 ppm limonin,2.8
same,Relative masking (bitter),[2]; solution of 10 ppm limonin,−38%
same,Assessment Bitter (0-10) With neoflavonoid,[2]; solution of 50 ppm poncirin,3.6
same,Relative masking (bitter),[2]; solution of 50 ppm poncirin,−8%
same,Assessment Bitter (0-10) With neoflavonoid,[2]; solution of 75 ppm naringin,3.7
same,Relative masking (bitter),[2]; solution of 75 ppm naringin,−18%
"O=C1CC(c2ccc(O)cc2)c2ccc(O)cc2O1 (stereo not shown) [1:1 mixture from component 29 and 30, 7-hydroxy-4-(4-hydroxy-phenyl)-chroman-2-on]",Relative change Bitter,[1]; [6],−45%
same,Relative change Sour,[1]; [6],−33%
same,Relative change Sweet,[1]; [6],+13%
same,Assessment (0-10) Bitter,[1]; [7],2.4
same,Assessment (0-10) Sour,[1]; [7],3.0
same,Assessment (0-10) Sweet,[1]; [7],5.3
"COc1cc(C2CC(=O)Oc3cc(O)cc(O)c32)ccc1O (stereo not shown) [1:1 mixture from component 9 and 10, 5,7-dihydroxy-4-(4-hydroxy-3-methoxy-phenyl)chroman-2-on]",Relative change Bitter,[1]; [8],−36%
same,Relative change Sour,[1]; [8],−19%
same,Relative change Sweet,[1]; [8],+22%
same,Relative change Bitter,[1]; [9],−46%
same,Relative change Sour,[1]; [9],−35%
same,Relative change Sweet,[1]; [9],+52%
same,Assessment (0-10) Bitter,[1]; [10],2.5
same,Assessment (0-10) Sour,[1]; [10],3.5
same,Assessment (0-10) Sweet,[1]; [10],6.0
same,Assessment (0-10) Bitter,[1]; [11],2.7
same,Assessment (0-10) Sour,[1]; [11],3.5
same,Assessment (0-10) Sweet,[1]; [11],3.8
same,Assessment Bitter (0-10) With neoflavonoid,[2]; solution of 10 ppm limonin,2.5
same,Relative masking (bitter),[2]; solution of 10 ppm limonin,−19%
same,Assessment Bitter (0-10) With neoflavonoid,[2]; solution of 50 ppm poncirin,3.5
same,Relative masking (bitter),[2]; solution of 50 ppm poncirin,−29%
same,Assessment Bitter (0-10) With neoflavonoid,[2]; solution of 75 ppm naringin,2.9
same,Relative masking (bitter),[2]; solution of 75 ppm naringin,−24%
"COc1cc(C2CC(=O)Oc3cc(O)cc(OC)c32)ccc1O (stereo not shown) [1:1 mixture from component 41 and 42, 7-hydroxy-4-(4-hydroxy-3-methoxy-phenyl)-5-methoxy-chroman-2-on]",Relative change Bitter,[1]; [12],−43%
same,Relative change Sour,[1]; [12],−13%
same,Relative change Sweet,[1]; [12],+43%
same,Assessment (0-10) Bitter,[1]; [13],2.7
same,Assessment (0-10) Sour,[1]; [13],3.7
same,Assessment (0-10) Sweet,[1]; [13],5.9
same,Assessment Bitter (0-10) With neoflavonoid,[2]; solution of 100 ppm naringin,3.7
same,Relative masking (bitter),[2]; solution of 100 ppm naringin,−15%
same,Relative masking (sour),"[3]; Carbonated soft drink (7° Brix, 0.2% citric acid), with vs without neoflavonoid, p < 0.1",−17%
same,Assessment Sour (0-10) With neoflavonoid,"[3]; Carbonated soft drink (7° Brix, 0.2% citric acid, 0.0001% citrus oil, 0.0001% lime oil, 0.06% citrus aroma), n=6-8",3.4

# From US12262725B2, “Improving taste profile of orange juice” (SYMRISE AG, priority 2015, dated 2025)
